Experimental data from US8049020B2 (priority 2006, dated 2011).

What was measured:
murine splenocytes = assay: ConA mitogen-stimulated proliferation of murine splenocytes ([3H]-thymidine incorporation); type: cell-based, mouse (BALB/c); settings: for IC50: ConA 1 μg/ml, [3H]-thymidine incorporation, nonlinear regression, read-out: IC50 (dose of compound required to inhibit 50% of a proliferating population of murine splenocytes); for Effect on splenocyte proliferation (counts per minute vs concentration, FIG. 1 and 2): ConA-stimulated murine splenocytes, result in words
Experimental: I. ConA Mitogen-Stimulated Proliferation of Murine Splenocytes
The concanavalin A (ConA) cell proliferation assay was used to assess the effect of test homoserine lactone (HSL) compounds on T-cell activation and proliferation. Proliferation was assessed by the incorporation of [^3H]-thymidine into DNA. Eight-week-old female BALB/c mice were obtained from Harlan (Bicester, Oxon, UK) and given food and water ad libitum. Splenocyte suspensions were prepared by removing the spleens and placing them into RPMI 1640 medium. The spleens were forced through 70-μm-pore-size wire gauzes using the plunger from a 5-ml syringe to produce a single cell suspension. The cells were pelleted by centrifugation, and erythrocytes were lysed with 0.017 M Tris, 0.144 M ammonium chloride buffer, pH 7.2. Leucocytes were washed twice with RPMI 1640 medium with 2% (vol/vol) foetal calf serum (FCS) and resuspended in complete cell culture medium (CTCM) consisting of RPMI 1640 medium with 5% FCS, 2 mM L-glutamine, and 5×10^−5 M 2-mercaptoethanol. HSL compounds were tested at doubling down dilutions ranging from 1 mM to 0.1 μM in a final volume of 200 μl of CTCM, containing ConA (Sigma, Poole, UK) at 1 μg/ml and 100,000 spleen cells. Following incubation for 48 h at 37° C. in 5% CO2-air, 0.25 μCi[^3H]-thymidine (Amersham) in 10 μl volume made up in RPMI 1640 medium was added and the cells were incubated for a further 24 h. Cells were harvested onto fibreglass filters with a Packard filtermate harvester. After the addition of 25 μl of MicroScint-O (Packard) to each well, the filters were counted with the Packard TopCount scintillation counter.
Mitogen (Concanavalin A) induced murine splenocyte proliferation was indicated by the incorporation of tritated thymidine into the DNA in the mouse spleen cells as shown by counts per minute using the scintillation counter. The inhibitory effect of an HSL compound being tested on cell proliferation was indicated by a reduction in counts per minute.
The IC50 value, i.e. the dose of compound (micromolar) required to inhibit 50% of a proliferating population of murine splenocytes, was determined for 4-aza-OdDHL, 4-methyl-4-aza-OdDHL and for the compound N-(2-fluoro-4-aza-3-oxododecanoyl)-L-homoserine lactone (2-fluoro-4-aza-OdDHL).

[1] = test system: E. coli JM109 harbouring the reporter plasmid pSB1075 (P. aeruginosa lasR gene and lasI promoter fused to luxCDABE); assay: Autoinducer activity: lux-based bioluminescence bioreporter assay; type: cell-based; settings: 10 μM compound; 4 hours at 37° C.; relative to OdDHL
Experimental: Also determined for each of these compounds was the autoinducer activity as a measure of the ability of the compound to induce light production in a specifically designed bacterial bioreporter system. Autoinducer (A.I.) activity was measured by the ability of the test N-acyl homoserine lactone compound (AHL) to induce bioluminescence in E. coli containing a lux-based bioluminescence reporter plasmid. For detection of a long chain AHL, such as OdDHL, E. coli JM109 harbouring the reporter plasmid pSB1075 was used. This reporter contains the P. aeruginosa IasR gene and IasI promoter fused to IuxCDABE from P. luminescens and preferentially responds to AHLs with acyl chains of 10-14 carbons in length.
Bioassays were performed in 96 well microliter plates. Briefly, 10 μl of the compound being assessed was placed into a microliter well plate and serially diluted using LB broth to produce a concentration range from 100 μM to 100 fM. Similar dilutions were performed on a synthetic OdDHL and used as a positive control. One hundred microliters of an overnight biosensor strain was added to each well and light emission was measured following 4 hours incubation at 37° C. Light production was assessed as counts per second on Perkin Elmer TopCount apparatus calibrated to measure bioluminescence. Values are expressed as a percentage of the bioluminescence measured after exposure of the bioreporter to OdDHL for four hours at 37° C. Logarithmic regression analysis of the range of synthetic OdDHL dilutions typically returned coefficient of determination values above 0.96.

murine spleen cells = settings: Infection and Immunity, vol. 66, No. 1, January 1998; cited from earlier work
[2] = test system: LPS-stimulated adherent murine peritoneal macrophages (TNF-α production); settings: Infection and Immunity, vol. 66, No. 1, January 1998; cited from earlier work

Row | SMILES | IC50 (murine splenocytes) | AI activity (autoinducer activity, percentage of the bioluminescence measured after exposure to OdDHL) [1] | Effect on splenocyte proliferation (counts per minute vs concentration, FIG. 1 and 2) (murine splenocytes) | Effect on ConA mitogen stimulated proliferation of murine spleen cells (murine spleen cells) | Effect on TNF-α production by LPS-stimulated adherent murine peritoneal macrophages [2]
1 | CCCCCCCCNC(=O)C(F)C(=O)N[C@H]1CCOC1=O (stereo partly drawn) [2-fluoro-4-aza-OdDHL, 4-Aza-2-fluoro-3-oxododecanoyl-L-homoserine lactone] | 21.8 µM | 19.9% |  |  | 
2 | CCCCCCCCN(C)C(=O)CC(=O)N[C@H]1CCOC1=O [4-methyl-4-aza-OdDHL, N-(4-aza-4-methyl-3-oxododecanoyl)-L-homoserine lactone] | 14.6 µM | 23.2% | inhibits splenoctye proliferation |  | 
3 | CCCCCCCCNC(=O)CC(=O)N[C@H]1CCOC1=O [Example 4-aza-OdDHL, N-(4-aza-3-oxododecanoyl)-L-homoserine lactone] | 17.1 µM | 2.8% | inhibits splenocyte proliferation |  | 
4 | CCCCCCCCCC(=O)CC(=O)N[C@H]1CCOC1=O [OdDHL, N-(3-oxododecanoyl) homoserine lactone, reference compound] | 12.7 µM | 100.0% | inhibits splenocyte proliferation | inhibiting | inhibiting
